For 1 compound, Ki results are on record in publication PMC10411625, “Rationally designed stapled peptides allosterically inhibit PTBP1–RNA-binding” (Chemical Science, 2023).

Some results are limits rather than exact numbers.

For the assay, the target named is T1, PTBP1 RRM12-L151G (Homo sapiens, UniProt P26599, L151G).
T1 construct: (P57-V265); MBP (from pMAL vector); His tag; made in house; host or cells: E. coli BL21 DE3 RIL
T1 sequence (P26599 57-265 L151G): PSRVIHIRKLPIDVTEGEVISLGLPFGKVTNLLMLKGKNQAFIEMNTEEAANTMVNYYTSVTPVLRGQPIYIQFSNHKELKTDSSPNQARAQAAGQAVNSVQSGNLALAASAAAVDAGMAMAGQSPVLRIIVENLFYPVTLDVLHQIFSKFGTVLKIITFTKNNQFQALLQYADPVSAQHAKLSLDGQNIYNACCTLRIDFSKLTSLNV
Put plainly: Competitive fluorescence polarization assay, RRM12-L151G and RNA-2. As to conditions: Fig. 3C; competitive FP with RNA-2; read-out: P-6 Ki, construct RRM12-L151G. Type of assay: binding. The source says:
Different PTBP1 variants were used to investigate the mode of action of P-6via competitive FP experiments. As illustrated in Fig. 1A there is a short linker between RRM1 and the α3-helix which also makes contacts with the RNA. It is possible that when P-6 occupies the binding site of the helix, this linker is displaced disrupting its interactions with the RNA and lowering the RNA-binding affinity. To test this, we measured whether P-6 could inhibit RRM1 RNA-binding. […] Therefore, it seems most likely that P-6 inhibits RRM12 via disturbing the coordinated RNA-binding of the two RRM domains. As this is possibly regulated by the helix we tested if the peptide could inhibit RRM12–L151G where the role of the helix is reduced (Fig. 3C and S5 ^†). […] These findings further support a mode of action where P-6 disturbs coordinated RNA-binding by RRM1 and 2. […]
size exclusion chromatography (Superdex 75 16/60 or 26/60) with SEC buffer (50 mM Tris, 200 mM NaCl). Protein homogeneity was assessed by the size exclusion chromatogram and purity was checked by SDS-PAGE analysis to be >= 90%.
The gene encoding for SRSF1-RRM12 (1-195) was subcloned into pOPIN-His expression vector and expressed in E. coli BL21 (DE3). […]
Fluorescence polarization assay with PTBP1 […]
(In fluorescence polarisation assays a small probe gives low polarisation when free and higher when bound to something large.)

Usually Ki stands for the equilibrium dissociation constant of an inhibitor or competing ligand from its target.

Turning to `CC(=O)N[C@@H](CC(N)=O)C(=O)N[C@@H](CCC(N)=O)C(=O)N[C@@]1(C)CCCC=CCCCC2(CCCC=CCCC[C@](C)(C(=O)N[C@H](C(=O)N[C@@H](CC(N)=O)C(N)=O)C(C)C)NC(=O)[C@H](CCC(N)=O)NC(=O)[C@H](CC(C)C)NC(=O)[C@H](C)NC2=O)NC(=O)[C@H](CCC(N)=O)NC(=O)[C@H](C)NC(=O)[C@H](CCCNC(=N)N)NC1=O` (stereo partly shown) [Peptide P-6], the Ki was above 750 µM.
